“And” between values parts separate entries of the source, which are not always exact repeats. Equal entries are not always repeated. Where two headings read alike, the source gives them in different places. Some results are limits rather than exact numbers.

In series [1] the test system is rat liver transplantation. To be noted: livers ischemic for 60 min, untreated group 0%, cited from earlier work.
A further series concerns Large-White pigs. Briefly: Orthotopic liver transplantation following 8 hour cold preservation in pigs (second description). Format: in vivo. As for the experimental part:
Orthotopic liver transplantations following 8 hour cold preservation were performed. Large-White pigs weighing 35-40 Kg were used after 24 hours starvation. Pigs were randomly divided into 2 groups. In Group 1, the PAF antagonist treatment group, consisting of 9 donors and 9 recipients, the PAF antagonist the compound (I) was given in the solutions (1mg/L) for flush-out and preservation at donor operation. It was also administered into recipients (0.3mg/Kg body weight) as an infusion and given in the solution (1mg/L) for rinsing before reperfusion of the graft (RPF) at recipient operation. Group 2, the untreated control group, consisted of 9 donors and 9 recipients that received the same solutions or intravenous infusion only without the compound (I). The solutions for flush-out and preservation of the graft liver were simplified UW solution in which hydroxyethyl starch was omitted from the original formulation of UW solution described for liver preservation, according to the reports showing that hydroxyethyl starch is not an essential component in UW solution.
Following premedication with ketamine (10mg/Kg i.m.), the ear vein was cannulated and saline perfusion was started. After injection of ketamine (5mg/Kg i.v.) and pancuronium (0.2mg/Kg i.v.), the animals were […]. Anesthesia was maintained by inhalation with 3L oxygen, 4L nitrous oxide and 1.5% ethranne. […] Following intravenous injection of heparine (10,000IU), the subrenal abdominal aorta was cannulated. […] The gallbladder was incised and washed with saline. The liver was harvested and dipped in 4üÄ UW solution bath.
The recipient pigs were anesthesized as described in donor operation. The right carotid artery and the right subclavian vein were then cannulated for blood pressure monitoring and blood sampling and for intravenous fluid infusion, respectively. After laparotomy, the liver was dissected free and removed. During anhepatic period, the portal blood was passively shunted by a tube between the portal vein and the right external jugular vein. […] The graft liver was reperfused with the portal blood after completion of the portal vein anastomosis. The bile duct was drained by external tube fistula. Immediately before the anastomosis of the portal vein, to remove the preservation solution, the graft liver was flushed with 500ml of Ringers lactate containig dextrase (5g%), mannitol (1.25g%) and sodium bicarbonate (0.21g%) as previously described. […] In our operations, the duration between the warm rinsing and RPF was less than 3 miniutes by using the cuff technique in portal vein anastomosis.
Intraoperative fluid infusion was as follows; 500ml of saline containing dextrose (2.5g%) was infused through the ear vein between the begining of the operation and the anhepatic period. In Group 1, The compound (I) (0.3mg/Kg) was mixed in this solution. During the anhepatic period, 500-750ml of saline containing sodium bicarbonate (0.21g%) was rapidly infused to prevent hypotension. Prior to RPF, sodiumu bicarbonate (1.05g) and calcium gluconate (0.1g) were injected intravenously. As a total, 1.5-2L of the fluid was infused during operation without any blood transfusion. Postoperatively, 0.5-1.0L of 5% dextrose solution was infused for the first 12 hours. Sodium bicarbonate was given to correct metabolic acidosis when necessary. No immunosuppressant was administered.
(§1) (1-Ethyl-2-[N-(2-methoxy)benzoyl-N-[(2R)-2-methoxy-3-( 4-octadecylcarbamoyloxy)piperidinocarbonyloxypopoxy]carbonyl]aminomethylpyridinium chloride, molecular weight 860.5) was supplied in powder form by Eisai Co.,Ltd. (Japan). It is soluble in water and saline, and a 1.5 mg/ml solution was prepared with saline immediately before use.
AKBR was measured at the time of cannulation in the right carotid artery (before), and at 1, 2, 4 and 12 hours after RPF. […]

Series [2] concerns porcine liver transplantation model. Briefly: Porcine liver transplantation model (8 hr cold preservation, sympatric transplantation). Format: in vivo, swine. The method, then:
A model was employed in which swine each weighing 30 to 40 kg were used, the livers were extirpated therefrom and preserved at low temperature for 8 hr, and sympatric liver transplantation was carried out. More specifically, the swine were starved for 24 hr, and randomly divided into two groups. Group 1 consisted of 9 donors and 9 recipients, which were treated with the above compound of the present invention. In the surgical operation of the donors, the compound (I) was added to the perfusate and the preservation fluid (1 mg/ℓ). Further, the compound (I) was continuously intravenously administered to the recipients (0.3 mg/kg) and added, in the surgical operation thereof, to the washing fluid for washing away the preservation fluid from the interior of each of the transplant livers (1 mg/ℓ).
Group 2 as a control group not treated with the compound of the present invention consisted of 9 donors and 9 recipients, for which the same continuous intravenous administration was carried out with the use of the same fluids as for Group 1, except that the compound (I) was not added thereto. A University of Wisconsin (hereinafter referred to as "UW") fluid prepared in a simplified manner was used for the perfusion and preservation of the transplant livers. The fluid was one obtained by omitting hydroxyethylstarch from the composition of the UW fluid customarily employed in the preservation of livers.
For each of the donors, premedication with ketamine (10 mg/kg) was conducted, and the auricular vein was cannulated to initiate the administration of physiological saline. Ketamine (5 mg/kg, i.v.) and pancronium (0.2 mg/kg, i.v.) were administered, and thereafter the airway was secured. The donor under surgical operation was kept anesthetized by inhalation of 3 ℓ of oxygen, 4 ℓ of laughing gas and 1.5% ethrane.
Heparin (10,000 IU) was intravenously injected, and thereafter the subrenal ventral aorta was cannulated. […] The gallbladder was dissected, and washed with physiological saline. The resultant liver was taken out, and immersed in a UW fluid bath. […] The transplant liver was preserved at 4°C for 8 hr.
Each of the recipient swine was also anesthetized in the same manner as described above with respect to the surgical operation of the donors. The right carotid artery and the right subclavian vein were cannulated for blood pressure monitoring and blood sampling and for intravenous injection, respectively. The abdomen was cut open, and the liver was detached and removed. During the ahepatic period, the blood from the portal vein was passively bypassed through a shunt tube inserted into the portal vein and the right external jugular vein. […] After the completion of the anastomosis with the portal vein, the transplant liver was reperfused with the blood from the portal vein.
The bile duct was drained outside the body through a biliary external fistula tube.
Just before the anastomosis with the portal vein, the transplant liver was perfused with lactated Ringer's solution (500 ml) containing dextrose (5 wt.%), mannitol (1.25 wt.%) and sodium bicarbonate (0.21 wt.%) to thereby remove the preservation fluid. The washing fluid was held at 30 to 37°C. Within 3 min of the hot washing, the transplant liver was reperfused.
During the ahepatic period starting with the initiation of the surgical operation, physiological saline (500 ml) containing dextrose (2.5 wt.%) was administered through the auricular vein. For the Group 1, the compound (I) (0.3 mg/kg) was mixed in the saline solution. During the ahepatic period, 500 to 750 ml of physiological saline containing sodium bicarbonate (0.21 wt.%) was rapidly injected in order to prevent blood pressure lowering. Sodium bicarbonate (1.05 g) and calcium gluconate (0.1 g) were intravenously administered prior to the reperfusion of the transplant liver. During the surgical operation, no transfusion was conducted, and a total of 1.5 to 2.0 ℓ of infusion solution was administered. […]

The test system of another series is Slc:SD rats. Nature of the series: Acute toxicity test, single intravenous administration, rats. Format: in vivo, Rat. The settings on record: for Acute toxicity (LD₅₀): Rat, Intravenous Injection, single administration. As for the experimental part: (§2) A single administration toxicity test was carried out by effecting intravenous injections (medium: physiological saline) to a group consisting of five male and five female 7 to 8-weeks-old Slc:SD rats and a group consisting of five male and five female 7 to 8-weeks-old Slc:ICR mice.

The nature of series [3]: Solubility in water and physiological saline. Format: physicochemical. The method, then:
The compound (I) soluble in both water and physiological saline was dissolved in physiological saline to prepare a solution of the compound (I) (1.5 mg/ml) prior to use.
as §1

The test system of a further series is human platelets. To be noted: reported value; read-out: IC50 value, inhibition of aggregation of human platelets induced by PAF; cited from earlier work.
For another series, the system named is Slc:ICR mice. Briefly: Acute toxicity test, single intravenous administration, mice. The settings on record: for Acute toxicity (LD₅₀): Mouse, Intravenous Injection, single administration. It is filed as in vivo, Mouse. As for the experimental part:
as §2

Where [4] appears, read: Group 1, 4 hr after the reperfusion (p<0.05).

Turning to `COC1=C(OC)C(=O)C(C/C=C(\C)CC/C=C(\C)CC/C=C(\C)CC/C=C(\C)CC/C=C(\C)CC/C=C(\C)CC/C=C(\C)CC/C=C(\C)CC/C=C(\C)CCC=C(C)C)=C(C)C1=O` [coenzyme Q₁₀], the one-week survival rate entry in series [1] (10 mg/kg intravenously to the donor rats prior to the operation) and in series [1] (10 mg/kg intravenously to the recipient rats prior to the operation) was “about 50%” throughout.

By IC50 is commonly meant the concentration that gives 50% inhibition. As to `CCCCCCCCCCCCCCCCCCNC(=O)OC1CCN(C(=O)OCC(COC(=O)N(Cc2cccc[n+]2CC)C(=O)c2ccccc2OC)OC)CC1.[Cl-]` (stereo not drawn) [compound (I), 1-ethyl-2-[N-(2-methoxy)benzoyl-N-{2-methoxy-3-(4-octadecylcarbamoyloxy)piperidinocarbonyloxypropoxy}carbonyl]aminomethylpyridinium chloride], the hematocrit values entry is “increased markedly at 2 hours after RPF, and then gradually decreased” in the series with Large-White pigs (Group 1 (both groups alike), course after RPF); “rapidly increased 2 hr after the reperfusion, and gradually decreased thereafter” in series [2] (Group 1 (both groups alike), course after the reperfusion). The “survival of all the 9 pigs” value in the series on Large-White pigs (Group 1 (treated)) is reported as “more than 4 days”. Further, the platelet count result is “slightly increased at 2 hours” in the series on Large-White pigs (Group 1, at 2 hours after RPF); 309.8 ± 21.6 ×10³/µℓ in series [2] (Group 1, 2 hr later); 227.8 ± 13.4 ×10³/µℓ in series [2] (Group 1, 12 hr later); 294.4 ± 19.8 ×10³/µℓ in series [2] (Group 1, prior value). In addition, in the series on Large-White pigs (Group 1, at 12 hours after RPF), the “lactate level in arterial blood” value is “restored to the primary levels”. The “Histological examination by light microscopy (HE stain): necrosis of hepatocytes, exudate of inflammatory cells, microvesicular changes” value in the series on Large-White pigs (Group 1, reperfused liver at 1 hour after RPF) was “rarely seen”. The “content of glycogen in hepatocytes (PAS staining)” value with Large-White pigs (Group 1 versus Group 2, at 1 hour after RPF) is “lesser content of glycogen in hepatocytes in Group 2 than in Group 1”. Also, the AKBR result in the series with Large-White pigs (Group 1 versus Group 2, at 4 hours after RPF) is listed as “tendency to be higher in Group 1 than in Group 2, though not significant”; in series [2] (Group 1, 12 hr after the reperfusion, significantly higher than Group 2 (p<0.05)) it was “recovered to the normal condition level”; in series [2] (Group 1, during 4 hr after the reperfusion, compared with Group 2), “only slightly higher than that of the Group 2”. Besides, the Survival with Large-White pigs (individual pigs of Group 1 (n=9) (treated): 1mg/L in flush-out, preservation and rinsing solutions, 0.3mg/Kg infusion to recipients, 0.3 mg/kg) was >7 POD (4×) and 4 POD and 5 POD and 6 POD (2×) and 7 POD. Further, the “survival of all of the 9 swine” value in series [2] (Group 1 (treated group)) is “at least 4 days”. In addition, the “12-hr or longer survinal rate” value in series [2] (Group 1, 9/9, Group 2 (untreated) 56% (5/9)) is given as 100%. For the same molecule, the “lactate level of arterial blood” value in series [2] (Group 1, 2 hr after the reperfusion) is 9.9 ± 1.0 mmol/L; in series [2] (setting [4]), 6.2 ± 1.1 mmol/L; in series [2] (Group 1, 12 hr after the reperfusion), “recovered to the initial level”. Besides, the leukocyte count in series [2] (Group 1, 2 hr later (p<0.01 vs Group 2)) was found to be 14.3 ± 1.8 ×10³/µℓ; in series [2] (Group 1, prior value), 11.5 ± 1.1 ×10³/µℓ. In series [2] (setting [4]), this molecule yielded a GOT level of 712 ± 97 U/ℓ. In series [2] (setting [4]), the GPT level is 65 ± 4 U/ℓ. Also, the “Histologic study (optical microscope): hepatocyte necroses, stagnation of hepatosinusoidal inflammatory cells, vacuolar degeneration” value in series [2] (Group 1, reperfused liver 1 hr after the reperfusion) is recorded as “little observed”. Further, in series [2] (Group 1 versus Group 2, 1 hr after the reperfusion), the “glycogen content of the hepatocytes (staining)” value is reported as “the glycogen content of the hepatocytes in the Group 2 was smaller than that in the Group 1”. The “Period of Survival” value in series [2] (individual recipient swine of Group 1 (treated): 1 mg/ℓ in perfusate, preservation fluid and washing fluid, 0.3 mg/kg i.v. to recipients, 0.3 mg/kg) is 7 days or more (4×) and 4 days and 5 days and 6 days (2×) and 7 days. In addition, the “Acute toxicity (LD₅₀)” value with Slc:SD rats (Female) came to 22.8 mg/kg; with Slc:SD rats (Male), 18.2 mg/kg; with Slc:ICR mice (Female), 50.0 mg/kg; in the series on Slc:ICR mice (Male) it was 46.8 mg/kg. In addition, the “LD₅₀ values relative to the clinical dose in intravenous injection” value in the series on Slc:SD rats (rat LD₅₀ values of Table 1) and in the series with Slc:ICR mice (mouse LD₅₀ values of Table 1) was at least 50 times in each case. Besides, the solubility entry in series [3] is on record as “soluble”. Moreover, the IC50 in the series with human platelets is 0.66 nM.

Source of the values: patent EP0672415A1, “Organopathy preventing, curing or ameliorating agent” (priority 1994, dated 1995).
